{
  "source": "paper PMC9322451",
  "about": "(Clinical Pharmacology in Drug Development, 2022)",
  "assay": "Phase 1 part A: PK after single and multiple once-daily oral doses",
  "assay_type": "in vivo, human",
  "conditions": "for Dose-normalized AUClast / Dose-normalized AUCτ / Dose-normalized AUC∞ / Dose-normalized Cmax: geometric least squares mean; for concentration at 30 day / Tmax / half-life / AUC / AUC(0-inf) / AUC(0-t) / Cmax: human, plasma",
  "method": "The study was conducted sequentially in 2 parts. […] Eligible participants were admitted to the clinical unit for single‐dose evaluation from days −2 to 2 and from days 29 to 31 for steady‐state PK and safety evaluation. Participants self‐administered daily doses after an overnight fast of at least 10 hours on days 4 to 30, with outpatient visits on days 3, 4, 7, 14, 21, 32, 33, and 61 (Figure S1).\nFor part A, blood samples for PK assessments were collected following administration on days 1 and 30 at 0 (predose), 0.5, 0.75, 1, 1.5, 2, 3, 4, 8, 12, 24, 48, and 72 hours after dosing. In addition, predose PK samples were collected on days 4, 7, 14, and 21. PK parameters following single and multiple once‐daily dosing were evaluated using noncompartmental analysis, including the AUC over a dosing interval (AUCτ), AUC from time 0 to the last time with quantifiable concentration (AUClast), AUC from time 0 to infinite time (AUC∞), maximum plasma concentration (Cmax), minimum plasma concentration, time to maximum plasma concentration (tmax), terminal elimination half‐life (t1/2), apparent total drug clearance following oral administration (CL/F), and predose concentration.\nAll statistical analyses were performed using SAS version 9.3 or higher (SAS Institute Inc., Cary, North Carolina). Analysis of PK data was performed using WinNonlin Professional Software version 8.0 or higher (Certara, LP, Princeton, New Jersey). […] Categorical data were summarized by race and treatment group in terms of number of participants with data at relevant time points, frequency counts, and percentages. PK concentrations below the limit of quantification (BLQ) at time 0 on days 1 and 30 were considered 0. Postdose BLQ data were considered missing for PK parameter calculation. For mean concentrations and graphic presentation, all BLQ data were imputed as 0.",
  "key": {"[1]": {"conditions": "Multiple dosing (Day 30), Japanese n = 23, 3 dose groups pooled"}, "[2]": {"conditions": "Multiple dosing (Day 30), White n = 24, 3 dose groups pooled"}, "[3]": {"conditions": "Single dose (Day 1), Japanese n = 25, 3 dose groups pooled"}, "[4]": {"conditions": "Single dose (Day 1), White n = 24, 3 dose groups pooled"}, "[5]": {"conditions": "po, 10 mg, Day 1, 10 mg, Japanese, mean (CV%)"}, "[6]": {"conditions": "po, 10 mg, Day 1, 10 mg, White, mean (CV%)"}, "[7]": {"conditions": "po, 10 mg, Day 30, 10 mg once daily, Japanese, mean (CV%)"}},
  "note": "Like-named read-outs stand apart in the source and are kept apart here.",
  "data": [
    {"smiles": "Cn1c(=O)oc2ccc(-c3ccc(C[C@@H](C#N)NC(=O)[C@@H]4CNCCCO4)cc3)cc21", "note": "[Brensocatib]", "values": [
      {"measurement": "Mean steady‐state CL/F", "setting": "10 mg, Japanese", "result": 10.1, "unit": "L/h"},
      {"measurement": "Mean steady‐state CL/F", "setting": "10 mg, White", "result": 8.5, "unit": "L/h"},
      {"measurement": "Mean steady‐state CL/F", "setting": "25 mg, Japanese", "result": 6.4, "unit": "L/h"},
      {"measurement": "Mean steady‐state CL/F", "setting": "25 mg, White", "result": 7.0, "unit": "L/h"},
      {"measurement": "Mean steady‐state CL/F", "setting": "40 mg, White", "result": 6.5, "unit": "L/h"},
      {"measurement": "Ctrough", "setting": "Day 30, 10 mg once daily, Japanese, mean (CV%)", "result": "15.64 (48.2) ng/mL"},
      {"measurement": "Ctrough", "setting": "Day 30, 10 mg once daily, White, mean (CV%)", "result": "31.65 (52.6) ng/mL"},
      {"measurement": "Ctrough", "setting": "Day 30, 25 mg once daily, Japanese, mean (CV%)", "result": "93.05 (72.3) ng/mL"},
      {"measurement": "Ctrough", "setting": "Day 30, 25 mg once daily, White, mean (CV%)", "result": "83.24 (48.2) ng/mL"},
      {"measurement": "Ctrough", "setting": "Day 30, 40 mg once daily, Japanese, mean (CV%)", "result": "81.86 (101.6) ng/mL"},
      {"measurement": "Ctrough", "setting": "Day 30, 40 mg once daily, White, mean (CV%)", "result": "92.95 (90) ng/mL"},
      {"measurement": "Dose-normalized AUClast", "setting": "[1]", "result": "172.9 (ng ‧ h/mL)/mg"},
      {"measurement": "Dose-normalized AUCτ", "setting": "[1]", "result": "107.6 (ng ‧ h/mL)/mg"},
      {"measurement": "Dose-normalized AUC∞", "setting": "[1]", "result": "194.9 (ng ‧ h/mL)/mg"},
      {"measurement": "Dose-normalized Cmax", "setting": "[1]", "result": "8.5 (ng/mL)/mg"},
      {"measurement": "Dose-normalized AUClast", "setting": "[2]", "result": "243.8 (ng ‧ h/mL)/mg"},
      {"measurement": "Dose-normalized AUCτ", "setting": "[2]", "result": "144.8 (ng ‧ h/mL)/mg"},
      {"measurement": "Dose-normalized AUC∞", "setting": "[2]", "result": "285.4 (ng ‧ h/mL)/mg"},
      {"measurement": "Dose-normalized Cmax", "setting": "[2]", "result": "10.6 (ng/mL)/mg"},
      {"measurement": "Dose-normalized AUClast", "setting": "[3]", "result": "94.0 (ng ‧ h/mL)/mg"},
      {"measurement": "Dose-normalized AUCτ", "setting": "[3]", "result": "62.5 (ng ‧ h/mL)/mg"},
      {"measurement": "Dose-normalized AUC∞", "setting": "[3]", "result": "103.9 (ng ‧ h/mL)/mg"},
      {"measurement": "Dose-normalized Cmax", "setting": "[3]", "result": "6.1 (ng/mL)/mg"},
      {"measurement": "Dose-normalized AUClast", "setting": "[4]", "result": "118.8 (ng ‧ h/mL)/mg"},
      {"measurement": "Dose-normalized AUCτ", "setting": "[4]", "result": "75.4 (ng ‧ h/mL)/mg"},
      {"measurement": "Dose-normalized AUC∞", "setting": "[4]", "result": "133.9 (ng ‧ h/mL)/mg"},
      {"measurement": "Dose-normalized Cmax", "setting": "[4]", "result": "6.9 (ng/mL)/mg"},
      {"measurement": "concentration at 30 day", "setting": "oral, 10 mg, Day 30, 10 mg once daily, Japanese, mean (CV%), read-out: Cavg", "result": 43.8, "unit": "ng/mL"},
      {"measurement": "concentration at 30 day", "setting": "oral, 10 mg, Day 30, 10 mg once daily, Japanese, mean (CV%), read-out: Cmin", "result": 19.6, "unit": "ng/mL"},
      {"measurement": "concentration at 30 day", "setting": "oral, 10 mg, Day 30, 10 mg once daily, White, mean (CV%), read-out: Cavg", "result": 49.4, "unit": "ng/mL"},
      {"measurement": "concentration at 30 day", "setting": "oral, 10 mg, Day 30, 10 mg once daily, White, mean (CV%), read-out: Cmin", "result": 26.3, "unit": "ng/mL"},
      {"measurement": "concentration at 30 day", "setting": "oral, 25 mg, Day 30, 25 mg once daily, Japanese, mean (CV%), read-out: Cavg", "result": 174, "unit": "ng/mL"},
      {"measurement": "concentration at 30 day", "setting": "oral, 25 mg, Day 30, 25 mg once daily, Japanese, mean (CV%), read-out: Cmin", "result": 98.8, "unit": "ng/mL"},
      {"measurement": "concentration at 30 day", "setting": "oral, 25 mg, Day 30, 25 mg once daily, White, mean (CV%), read-out: Cavg", "result": 161, "unit": "ng/mL"},
      {"measurement": "concentration at 30 day", "setting": "oral, 25 mg, Day 30, 25 mg once daily, White, mean (CV%), read-out: Cmin", "result": 93.9, "unit": "ng/mL"},
      {"measurement": "concentration at 30 day", "setting": "oral, 40 mg, Day 30, 40 mg once daily, Japanese, mean (CV%), read-out: Cavg", "result": 167, "unit": "ng/mL"},
      {"measurement": "concentration at 30 day", "setting": "oral, 40 mg, Day 30, 40 mg once daily, Japanese, mean (CV%), read-out: Cmin", "result": 77.5, "unit": "ng/mL"},
      {"measurement": "concentration at 30 day", "setting": "oral, 40 mg, Day 30, 40 mg once daily, White, mean (CV%), read-out: Cavg", "result": 269, "unit": "ng/mL"},
      {"measurement": "concentration at 30 day", "setting": "oral, 40 mg, Day 30, 40 mg once daily, White, mean (CV%), read-out: Cmin", "result": 149, "unit": "ng/mL"},
      {"measurement": "Tmax", "setting": "oral, once‐daily administration, steady state, range over groups, read-out: Tmax", "result": "1 to 1.8", "unit": "h"},
      {"measurement": "half-life", "setting": "oral, once‐daily administration, steady state, range over groups, read-out: elimination t1/2", "result": "21.7 to 27.6", "unit": "h"},
      {"measurement": "half-life", "setting": "oral, range over groups (abstract), read-out: Elimination half‐life", "result": "22 to 28", "unit": "h"},
      {"measurement": "half-life", "setting": "oral, single dose, Japanese participants, range over dose groups, read-out: Elimination t1/2", "result": "18.4 to 22.4", "unit": "h"},
      {"measurement": "half-life", "setting": "oral, single dose, White participants, range over dose groups, read-out: Elimination t1/2", "result": "21.5 to 24.5", "unit": "h"},
      {"measurement": "Tmax", "setting": "oral, single‐dose administration, range over groups, read-out: median tmax", "result": "1 to 1.5", "unit": "h"},
      {"measurement": "half-life", "setting": "oral, steady state, Japanese participants, across the 3 dose groups, read-out: mean t1/2", "result": "21.7 to 23.1", "unit": "h"},
      {"measurement": "half-life", "setting": "oral, steady state, White participants, across the 3 dose groups, read-out: mean t1/2", "result": "22.9 to 27.6", "unit": "h"},
      {"measurement": "AUC", "setting": "[5]", "result": 628, "unit": "ng·h/mL"},
      {"measurement": "AUC(0-inf)", "setting": "[5]", "result": 1030, "unit": "ng·h/mL"},
      {"measurement": "AUC(0-t)", "setting": "[5]", "result": 943, "unit": "ng·h/mL"},
      {"measurement": "Cmax", "setting": "[5]", "result": 64.5, "unit": "ng/mL"},
      {"measurement": "half-life", "setting": "po, 10 mg, Day 1, 10 mg, Japanese, mean (CV%), read-out: t1/2 (converted)", "result": 18.8, "unit": "h"},
      {"measurement": "Tmax", "setting": "po, 10 mg, Day 1, 10 mg, Japanese, median (range), read-out: Tmax", "result": 1.02, "unit": "h"},
      {"measurement": "AUC", "setting": "[6]", "result": 620, "unit": "ng·h/mL"},
      {"measurement": "AUC(0-inf)", "setting": "[6]", "result": 1140, "unit": "ng·h/mL"},
      {"measurement": "AUC(0-t)", "setting": "[6]", "result": 988, "unit": "ng·h/mL"},
      {"measurement": "Cmax", "setting": "[6]", "result": 55.9, "unit": "ng/mL"},
      {"measurement": "half-life", "setting": "po, 10 mg, Day 1, 10 mg, White, mean (CV%), read-out: t1/2 (converted)", "result": 25.7, "unit": "h"},
      {"measurement": "Tmax", "setting": "po, 10 mg, Day 1, 10 mg, White, median (range), read-out: Tmax", "result": 1.01, "unit": "h"},
      {"measurement": "AUC", "setting": "[7]", "result": 1050, "unit": "ng·h/mL"},
      {"measurement": "AUC(0-inf)", "setting": "[7]", "result": 1980, "unit": "ng·h/mL"},
      {"measurement": "AUC(0-t)", "setting": "[7]", "result": 1730, "unit": "ng·h/mL"},
      {"measurement": "Cmax", "setting": "[7]", "result": 80.5, "unit": "ng/mL"}
    ]}
  ]
}
